Measurements: US11179348B2, “Combination comprising pterostilbene for the treatment of cancer” (FUNDACIÓN UNIVERSIDAD CATÓLICA DE VALENCIA SAN VICENTE …, priority 2015, dated 2021)

Assays:
Set-up in all cases: species or system human
A2058 melanoma cells = test: Nrf2- and redox state-related enzyme activities and metabolites in A2058 cells growing in vivo; settings: A2058, in vivo +Pter, day 35
Procedure: Transfection of the Red Fluorescence Protein.
First the pDsRed-2 vector (Clontech Laboratories Inc., Palo Alto, Calif.) was used, as previously described for A375 melanoma cells (Mena, S. et al. J Transl Med 10, 8 (2012)), to engineer A2058, MeWo and MelJuso melanoma clones stably expressing the RFP. Isolation of A2058-RFP, MeWo-RFP or MelJuso-RFP cells from the growing xenografts was performed by laser microdissection and high-performance cell sorting as previously described in detail (Mena, S. et al. J Transl Med 10, 8 (2012)).
(§1) To measure enzyme activity, isolated tumor cells were homogenized in 0.1 M phosphate buffer (pH 7.2) at 4° C. GCL and GSS activities were measured as described previously (Obrador, E. et al. Hepatology 35, 74-81 (2002)). GPX (selenium dependent) activity was measured as described by Flohé and Gunzler (Flohe, L. & Gunzler, W. A. Methods Enzymol 105, 114-121 (1984)) using H2O2 as a substrate. GSR activity was determined as described by Akerboom and Sies (Akerboom, T. P. et al, Bull Eur Physiopathol Respir 17 Suppl, 221-227 (1981)). GGT activity was measured as described previously (Obrador, E. et al. Hepatology 35, 74-81 (2002)). GST activity was measured using an assay kit from Sigma. TXNRD activity, defined by the concentration of sodium-lipoate (disulfide) reduced to dehydrolipoate (dithiol) per milligram protein, was measured as previously described (Javvadi, P. et al. Cancer Res 70, 1941-1950 (2010)). SOD activity was measured as described by Flohé and Otting (Flohe, L. & Otting, F. Methods Enzymol 105, 93-104 (1984).) using 2 mM cyanide in the assay medium to distinguish mangano-type enzyme (SOD2) from the cuprozinc type (SOD1). CAT activity was analyzed as described by Aebi (Aebi, H. Methods Enzymol 105, 121-126 (1984)). NOX activity was measured by chemiluminescence following the methodology of Wind et al. (Wind, S. et al. Comparative pharmacology of chemically distinct NADPH oxidase inhibitors. Br J Pharmacol 161, 885-898 (2010)). Protein concentration was determined with the Pierce BCA protein assay (Fisher Scientific, Waltham, Mass.).
Measurement of H2O2 and O2^⋅−.
Quantitative measurement of H2O2 and flow cytometry determination of O2^⋅− generation were performed as previously described (Benlloch, M. et al. J Biol Chem 281, 69-79 (2006)).
(§2) GSH, GSSG, NADP^+ and NADPH Determination.
(§3) GSH and GSSG were determined, following procedures previously described (Obrador, E. et al. PLoS One 9, e96466 (2014)), by LC/MS using the same equipment described above for pterostilbene determination. Cell processing was performed according to published methodology, where rapid N-ethylmaleimide derivatization was used to prevent GSH auto-oxidation (Asensi, M. et al. Anal Biochem 217, 323-328 (1994)). NADP^+ and NADPH were quantitated using an assay kit from Sigma (St. Louis, Mo.).

LNCaP cells = test: GSH levels and glutathione- and oxidative stress-related enzyme activities in LNCaP cells growing in vivo; settings: in vivo Pter, day 49
Procedure: as §1, §2, §3
Isolation of Tumor Cells from Mouse Xenografts Using Enzymatic Digestion and a double Ficoll gradient.
To maximize the amount of isolated cells, avoiding the use of RFP-transfected cells and subsequent laser microdissection, an alternative methodology was set up. To maximize cell yield and viability the following combination of enzymes was used: collagenase III (200 U/ml; Sigma-Aldrich), DNase I (200 U/ml; Sigma-Aldrich) and trypsin (5 mg/ml; Invitrogen), and a non-enzymatic dissociation buffer (NEDB, Invitrogen). Briefly, mice were killed, and tumors were removed (avoiding skin, muscle and fat) into cold culture media and processed immediately. The tumors were minced into 1-3 mm fragments, which were then incubated with the dissociation solution (see above) for 30 min at 37° C. The tumor fragments were mixed up and down every 10 min using a […] micropipette with a tip cut to a diameter adapted to tissue fragment size. After each incubation period, the fragments were filtered through a […] nylon mesh cell strainer (BD Biosciences, San Diego, Calif., USA). The released cells were centrifuged at 1200 r.p.m. for 2 min and stored in cold CO2-independent medium with 30% FCS at […]. Fresh dissociation solution was added to the remaining tissue fragments for 30 min. Dissociation was stopped when no additional cells were released. The fragments were pushed through a sieve and all cells from all incubation periods were pooled and counted.
The dissociated cells were layered onto a double Ficoll gradient (Histopaque; Sigma-Aldrich; densities 1.077 and 1.119) and spun at 700 g for 30 min at room temperature. Cells removed from both interfaces were pooled and washed two times in CO2-independent medium and stored at 4° C. Debris and red blood cell elimination was improved with the dual-density gradient. […]

[1] = test system: Caco-2 colorectal carcinoma; test: In vivo growth of Caco-2 colorectal cancer xenografts; settings: Caco-2, day 28

COc1cc(/C=C/c2ccc(O)cc2)cc(OC)c1 [Pter, trans-3,5-dimethoxy-4′-hydroxystilbene]
CAT (A2058 melanoma cells): 1.7 ± 0.3 mU/10^6 cells
G6PDH (A2058 melanoma cells): 305 ± 78 mU/10^6 cells
GCL (A2058 melanoma cells): 58 ± 17 mU/10^6 cells
GGT (A2058 melanoma cells): 19.6 ± 2.7 mU/10^6 cells
GPX (A2058 melanoma cells): 3.9 ± 1.1 mU/10^6 cells
GSH (A2058 melanoma cells): 10.5 ± 2.1 nmol/10^6 cells
GSH/GSSG (A2058 melanoma cells): 35 ± 5
GSR (A2058 melanoma cells): 6.1 ± 1.6 mU/10^6 cells
GSS (A2058 melanoma cells): 8.5 ± 2.0 mU/10^6 cells
GSSG (A2058 melanoma cells): 0.3 ± 0.1 nmol/10^6 cells
GST (A2058 melanoma cells): 7.5 ± 1.3 mU/10^6 cells
H2O2 (A2058 melanoma cells): 0.7 ± 0.2 nmol/10^6 cells × min
IDH (A2058 melanoma cells): 1.2 ± 0.4 U/10^6 cells
ME (A2058 melanoma cells): 43 ± 12 mU/10^6 cells
NADPH (A2058 melanoma cells): 0.06 ± 0.02 nmol/mg prot
NADPH/NADP^+ (A2058 melanoma cells): 1.2 ± 0.3
NADP^+ (A2058 melanoma cells): 0.05 ± 0.01 nmol/mg prot
NOX (A2058 melanoma cells): 177 ± 4.5 R.L.U./10^6 cells
O2^− (A2058 melanoma cells): 3.9 ± 0.6 ΔFL1, a.u.
SOD1 (A2058 melanoma cells): 0.6 ± 0.2 U/10^6 cells
SOD2 (A2058 melanoma cells): 0.1 ± 0.05 U/10^6 cells
TXN (A2058 melanoma cells): 0.5 ± 0.1 μg/10^6 cells
TXNRD (A2058 melanoma cells): 0.7 ± 0.2 U/10^6 cells
CAT (LNCaP cells): 1.9 ± 0.5 mU/10^6 cells
GCL (LNCaP cells): 45 ± 14 mU/10^6 cells
GSH (LNCaP cells): 3.7 ± 1.5 nmol/10^6 cells
GSS (LNCaP cells): 4.0 ± 1.2 mU/10^6 cells
GSSG (LNCaP cells): 0.12 ± 0.05 nmol/10^6 cells
SOD1 (LNCaP cells): 0.5 ± 0.1 U/10^6 cells
SOD2 (LNCaP cells): 0.01 ± 0.005 U/10^6 cells
Tumor vol. [1]: 795 ± 285 mm^3
